Assay [1] has as its target PDE4D3 (Homo sapiens, UniProt Q08499). As to the kind of experiment: In vitro PDE selectivity assay (SPA), PDE4D3. Format: biochemical. The conditions noted are these: hPDE4D3; read-out: PDE 4D3 (expressed as pIC50) (converted). The procedure, abridged:
(§1)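 Inhibition of each PDE isoform was measured by scintillation proximity assay with ³H-cyclic nucleotide substrate, using incubation buffer, substrate concentration, incubation time and stop solution adapted per isoform. Compounds were tested in dose-response against 1% DMSO controls and enzyme-free blanks. IC50 came from a least-squares fit of blank-subtracted % of control versus concentration.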

Assay [2] concerns the target T1, PDE10 (Rattus norvegicus, UniProt Q9QYJ6).
T1 construct: from tissue; host or cells: rat brain sections, striatum (in vivo dosing, ex vivo autoradiography)
T1 sequence (Q9QYJ6 1-794): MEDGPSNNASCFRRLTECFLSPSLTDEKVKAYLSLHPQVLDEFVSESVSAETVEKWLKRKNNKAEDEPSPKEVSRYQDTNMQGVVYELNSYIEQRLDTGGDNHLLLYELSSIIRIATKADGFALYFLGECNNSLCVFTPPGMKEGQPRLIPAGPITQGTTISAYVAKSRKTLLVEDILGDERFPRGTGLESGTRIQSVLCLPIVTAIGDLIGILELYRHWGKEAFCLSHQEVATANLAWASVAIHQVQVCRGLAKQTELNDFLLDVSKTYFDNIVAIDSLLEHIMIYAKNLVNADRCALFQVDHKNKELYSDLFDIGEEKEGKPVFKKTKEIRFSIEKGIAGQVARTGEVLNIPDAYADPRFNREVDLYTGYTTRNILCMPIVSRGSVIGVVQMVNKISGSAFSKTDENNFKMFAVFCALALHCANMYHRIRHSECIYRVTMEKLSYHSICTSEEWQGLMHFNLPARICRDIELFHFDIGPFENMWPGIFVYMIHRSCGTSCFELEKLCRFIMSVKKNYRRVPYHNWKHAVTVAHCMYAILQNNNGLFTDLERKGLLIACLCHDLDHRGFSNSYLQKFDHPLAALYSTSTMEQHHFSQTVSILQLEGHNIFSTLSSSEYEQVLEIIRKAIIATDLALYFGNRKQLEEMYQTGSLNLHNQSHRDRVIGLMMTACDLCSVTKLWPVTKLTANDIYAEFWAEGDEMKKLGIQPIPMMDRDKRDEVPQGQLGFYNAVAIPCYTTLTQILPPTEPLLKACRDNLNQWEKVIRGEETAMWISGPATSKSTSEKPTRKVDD
Description: PDE10 occupancy ([3H]-MP-10, striatum). The conditions noted are these: for receptor occupancy at 10 mg/kg / ED50: rat, sc; for receptor occupancy at 10 mg/kg: single dose 10 mg/kg, subcutaneous, read-out: SD sc % occupancy at 10 mg/kg; for ED50: dose response, subcutaneous administration, read-out: PDE10 in vivo occupancy ED50 sc. Format: in vivo. The procedure, abridged:
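Male Wistar rats (200 g) dosed s.c. or p.o.; occupancy measured 1 h post-dose. [^3H]-MP-10 (10 μCi/animal) given i.v. 30 min before sacrifice.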

Assay [3] relates to apomorphine-induced stereotypy in rats. Description: Apomorphine-induced stereotypy in rats (APO). Format: in vivo. The note with it: Rattus norvegicus; dose at which 50% of the tested animals show the effect; ≧: active in 30% of the animals at the indicated dose; ≦: active in 60%. How it is done: Apomorphine (1.0 mg/kg, i.v.)-induced stereotypy (compulsive sniffing, licking, chewing) was scored every 5 min over the first hour after injection of apomorphine, following a 1 hour interval pre-treatment with the test compound. The score system was: (3) pronounced, (2) moderate, (1) slight, and (0) absent.

The target in assay [4] is other members of the PDE family (Homo sapiens, UniProt Q14432). As to the kind of experiment: In vitro PDE selectivity assay (SPA), other members of the PDE family (protocols in Table A). The format is biochemical. The note with it: hPDE3A; read-out: PDE 3A (expressed as pIC50) (converted). The procedure, abridged: as §1
Assay [5] addresses other members of the PDE family (Homo sapiens, UniProt O76083). Described as above. The format is biochemical. The note with it: hPDE9A; read-out: PDE 9A (expressed as pIC50) (converted). The procedure, abridged: as §1
Assay [6] concerns the target other members of the PDE family (Homo sapiens, UniProt Q13946). The description is as above. The format is biochemical. The note with it: hPDE7A1; read-out: PDE 7A (expressed as pIC50) (converted). An outline of the steps:
as §1

In assay [7] the target is other members of the PDE family (Homo sapiens, UniProt Q9HCR9). The assay is described as above. Format: biochemical. The conditions noted are these: hPDE11A4; read-out: PDE 11A4 (expressed as pIC50) (converted). The procedure, abridged:
as §1

The target in assay [8] is other members of the PDE family (Homo sapiens, UniProt O00408). Described as above. The note with it: hPDE2A; read-out: PDE 2A (expressed as pIC50) (converted). Format: biochemical. The procedure, abridged:
as §1

Assay [9] deals with PDE5A3 (Homo sapiens, UniProt O76074). As to the kind of experiment: In vitro PDE selectivity assay (SPA), PDE5A3. Format: biochemical. The conditions noted are these: hPDE5A3; read-out: PDE 5A3 (expressed as pIC50) (converted). An outline of the steps: as §1
The target of assay [10] is T2, Rat recombinant PDE10A (rPDE10A2) (Rattus norvegicus, UniProt Q9QYJ6).
T2 construct: inferred from the Ni metal chelate purification; made in house; host or cells: Sf9 insect cells (baculovirus)
T2 sequence (Q9QYJ6 1-794): T1 sequence (Q9QYJ6 1-794)
Description: In vitro assay PDE10A (SPA, 3H-cAMP). The format is biochemical. An outline of the steps: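 Scintillation proximity read-out (cpm) of 3H-cAMP hydrolysis after 60 min at room temperature, with enzyme-free blanks and 1% DMSO controls. Enzyme was Sf9-expressed, Ni-sepharose-purified rat rPDE10A2; substrate 60 nM cAMP with tracer, buffer Tris pH 7.8 containing MgCl2 and EGTA.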

Setting [11] is: Table 4 in vitro selectivity, read-out: PDE 10A2 (expressed as pIC50) (converted).
Where [12] appears, read: pIC50 corresponds to the −log IC50 expressed in mol/L, read-out: PDE10A2 pIC50 (converted).

Read-outs that look alike come from different tables or passages of the source.

other members of the PDE family (Homo sapiens, UniProt O76083), sequence (O76083 whole entry): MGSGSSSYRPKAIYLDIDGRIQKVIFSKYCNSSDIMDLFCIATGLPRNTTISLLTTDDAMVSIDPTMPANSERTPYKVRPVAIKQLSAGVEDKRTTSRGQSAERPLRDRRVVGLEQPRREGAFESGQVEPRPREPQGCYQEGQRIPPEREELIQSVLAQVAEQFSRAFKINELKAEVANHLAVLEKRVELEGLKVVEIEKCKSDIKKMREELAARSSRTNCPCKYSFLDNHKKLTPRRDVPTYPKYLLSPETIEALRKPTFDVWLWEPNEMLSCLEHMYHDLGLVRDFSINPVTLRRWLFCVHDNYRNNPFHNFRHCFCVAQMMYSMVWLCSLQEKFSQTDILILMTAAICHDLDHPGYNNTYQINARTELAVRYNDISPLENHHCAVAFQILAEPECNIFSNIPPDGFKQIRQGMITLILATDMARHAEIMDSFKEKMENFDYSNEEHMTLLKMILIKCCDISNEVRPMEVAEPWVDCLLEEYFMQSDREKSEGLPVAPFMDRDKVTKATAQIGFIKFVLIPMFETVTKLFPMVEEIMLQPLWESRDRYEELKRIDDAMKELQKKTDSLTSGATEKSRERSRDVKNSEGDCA
other members of the PDE family (Homo sapiens, UniProt O00408), sequence (O00408 whole entry): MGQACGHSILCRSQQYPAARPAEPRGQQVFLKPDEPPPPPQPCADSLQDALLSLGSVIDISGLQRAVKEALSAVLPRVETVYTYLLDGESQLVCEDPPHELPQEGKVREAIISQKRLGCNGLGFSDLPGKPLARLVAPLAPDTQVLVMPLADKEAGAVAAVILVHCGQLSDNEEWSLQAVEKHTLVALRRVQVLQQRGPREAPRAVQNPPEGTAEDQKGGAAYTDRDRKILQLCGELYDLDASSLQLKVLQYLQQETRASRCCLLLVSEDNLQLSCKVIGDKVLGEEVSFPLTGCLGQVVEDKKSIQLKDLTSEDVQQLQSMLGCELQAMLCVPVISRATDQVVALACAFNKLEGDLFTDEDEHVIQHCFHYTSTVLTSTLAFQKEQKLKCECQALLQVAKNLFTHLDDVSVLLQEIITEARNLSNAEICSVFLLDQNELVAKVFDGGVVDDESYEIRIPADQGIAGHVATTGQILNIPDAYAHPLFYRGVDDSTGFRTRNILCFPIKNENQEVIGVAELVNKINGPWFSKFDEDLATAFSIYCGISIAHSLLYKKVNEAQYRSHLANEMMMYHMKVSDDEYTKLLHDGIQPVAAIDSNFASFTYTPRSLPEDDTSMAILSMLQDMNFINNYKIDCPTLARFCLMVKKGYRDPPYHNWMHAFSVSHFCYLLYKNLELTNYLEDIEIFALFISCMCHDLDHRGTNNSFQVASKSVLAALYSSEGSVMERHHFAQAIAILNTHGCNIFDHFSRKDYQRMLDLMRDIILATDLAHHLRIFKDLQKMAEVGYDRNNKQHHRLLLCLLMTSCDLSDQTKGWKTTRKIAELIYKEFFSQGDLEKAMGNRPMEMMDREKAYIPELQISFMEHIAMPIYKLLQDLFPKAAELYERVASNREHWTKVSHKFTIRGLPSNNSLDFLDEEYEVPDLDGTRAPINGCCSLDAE
other members of the PDE family (Homo sapiens, UniProt Q14432), sequence (Q14432 whole entry): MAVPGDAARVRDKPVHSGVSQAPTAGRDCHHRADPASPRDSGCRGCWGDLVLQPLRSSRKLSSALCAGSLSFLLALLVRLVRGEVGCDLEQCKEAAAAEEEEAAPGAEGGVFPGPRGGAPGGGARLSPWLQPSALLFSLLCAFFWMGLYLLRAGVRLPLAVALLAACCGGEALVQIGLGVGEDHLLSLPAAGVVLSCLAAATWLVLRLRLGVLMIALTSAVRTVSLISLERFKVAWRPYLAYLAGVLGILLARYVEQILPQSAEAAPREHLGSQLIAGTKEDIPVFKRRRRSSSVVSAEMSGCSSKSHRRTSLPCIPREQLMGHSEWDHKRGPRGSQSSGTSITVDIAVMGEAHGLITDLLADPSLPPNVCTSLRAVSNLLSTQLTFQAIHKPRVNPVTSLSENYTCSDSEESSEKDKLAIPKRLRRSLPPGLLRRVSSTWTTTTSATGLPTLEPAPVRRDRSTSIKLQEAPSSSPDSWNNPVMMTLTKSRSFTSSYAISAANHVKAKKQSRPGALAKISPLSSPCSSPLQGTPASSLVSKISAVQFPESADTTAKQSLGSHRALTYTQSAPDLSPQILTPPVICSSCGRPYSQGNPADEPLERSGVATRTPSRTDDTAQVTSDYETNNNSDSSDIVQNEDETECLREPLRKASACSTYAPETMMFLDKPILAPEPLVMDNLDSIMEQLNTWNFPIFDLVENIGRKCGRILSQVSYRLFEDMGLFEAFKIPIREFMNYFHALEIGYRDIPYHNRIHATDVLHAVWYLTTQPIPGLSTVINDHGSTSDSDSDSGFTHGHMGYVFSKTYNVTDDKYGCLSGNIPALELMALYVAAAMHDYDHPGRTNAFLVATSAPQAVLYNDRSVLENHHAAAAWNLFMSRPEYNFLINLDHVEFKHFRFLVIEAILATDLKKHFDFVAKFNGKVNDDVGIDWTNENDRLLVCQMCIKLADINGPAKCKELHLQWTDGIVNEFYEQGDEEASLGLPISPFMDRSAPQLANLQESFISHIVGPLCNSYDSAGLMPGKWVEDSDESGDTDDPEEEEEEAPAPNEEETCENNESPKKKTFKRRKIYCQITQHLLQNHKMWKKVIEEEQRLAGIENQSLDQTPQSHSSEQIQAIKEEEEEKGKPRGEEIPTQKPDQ
other members of the PDE family (Homo sapiens, UniProt Q9HCR9), sequence (Q9HCR9 whole entry): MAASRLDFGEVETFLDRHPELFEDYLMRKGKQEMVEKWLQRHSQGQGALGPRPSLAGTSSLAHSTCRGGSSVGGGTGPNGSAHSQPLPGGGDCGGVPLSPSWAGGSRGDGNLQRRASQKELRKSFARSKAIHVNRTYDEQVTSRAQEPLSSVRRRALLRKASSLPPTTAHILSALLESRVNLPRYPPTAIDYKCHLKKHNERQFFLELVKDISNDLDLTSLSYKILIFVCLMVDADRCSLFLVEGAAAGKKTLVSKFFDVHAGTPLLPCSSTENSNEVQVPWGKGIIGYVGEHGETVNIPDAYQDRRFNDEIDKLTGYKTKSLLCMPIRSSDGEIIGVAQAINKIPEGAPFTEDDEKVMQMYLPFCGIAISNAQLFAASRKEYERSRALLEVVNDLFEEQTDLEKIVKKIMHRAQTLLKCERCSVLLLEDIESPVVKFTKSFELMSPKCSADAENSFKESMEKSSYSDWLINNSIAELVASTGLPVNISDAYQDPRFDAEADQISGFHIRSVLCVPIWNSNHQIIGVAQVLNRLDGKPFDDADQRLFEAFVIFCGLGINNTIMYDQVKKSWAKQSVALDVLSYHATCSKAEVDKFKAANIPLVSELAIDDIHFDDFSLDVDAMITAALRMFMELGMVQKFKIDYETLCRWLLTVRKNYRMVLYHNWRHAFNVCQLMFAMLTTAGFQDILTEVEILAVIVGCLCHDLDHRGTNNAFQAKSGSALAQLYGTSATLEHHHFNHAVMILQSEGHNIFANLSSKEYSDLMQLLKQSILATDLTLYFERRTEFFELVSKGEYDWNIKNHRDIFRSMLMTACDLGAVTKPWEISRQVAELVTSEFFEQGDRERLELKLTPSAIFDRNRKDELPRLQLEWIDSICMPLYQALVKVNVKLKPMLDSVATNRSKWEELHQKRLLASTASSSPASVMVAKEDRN
PDE4D3, sequence (Q08499 1-673 isoform Q08499-2): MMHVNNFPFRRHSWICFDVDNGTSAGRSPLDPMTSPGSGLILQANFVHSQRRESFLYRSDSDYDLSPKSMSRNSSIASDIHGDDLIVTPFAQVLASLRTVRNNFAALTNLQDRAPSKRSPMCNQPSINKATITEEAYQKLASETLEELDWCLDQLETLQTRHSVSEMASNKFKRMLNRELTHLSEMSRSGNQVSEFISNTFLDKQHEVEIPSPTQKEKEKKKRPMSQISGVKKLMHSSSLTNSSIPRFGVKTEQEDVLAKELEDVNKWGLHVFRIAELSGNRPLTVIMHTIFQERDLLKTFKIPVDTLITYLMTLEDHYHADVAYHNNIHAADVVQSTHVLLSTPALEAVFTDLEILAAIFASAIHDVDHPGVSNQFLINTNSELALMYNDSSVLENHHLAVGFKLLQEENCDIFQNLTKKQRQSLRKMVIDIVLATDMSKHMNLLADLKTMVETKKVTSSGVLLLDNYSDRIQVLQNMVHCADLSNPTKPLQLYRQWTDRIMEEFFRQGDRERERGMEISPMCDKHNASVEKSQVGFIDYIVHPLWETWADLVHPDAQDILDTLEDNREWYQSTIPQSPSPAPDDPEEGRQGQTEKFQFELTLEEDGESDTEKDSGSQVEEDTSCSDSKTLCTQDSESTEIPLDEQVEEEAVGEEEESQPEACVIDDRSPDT
other members of the PDE family (Homo sapiens, UniProt Q13946), sequence (Q13946 whole entry): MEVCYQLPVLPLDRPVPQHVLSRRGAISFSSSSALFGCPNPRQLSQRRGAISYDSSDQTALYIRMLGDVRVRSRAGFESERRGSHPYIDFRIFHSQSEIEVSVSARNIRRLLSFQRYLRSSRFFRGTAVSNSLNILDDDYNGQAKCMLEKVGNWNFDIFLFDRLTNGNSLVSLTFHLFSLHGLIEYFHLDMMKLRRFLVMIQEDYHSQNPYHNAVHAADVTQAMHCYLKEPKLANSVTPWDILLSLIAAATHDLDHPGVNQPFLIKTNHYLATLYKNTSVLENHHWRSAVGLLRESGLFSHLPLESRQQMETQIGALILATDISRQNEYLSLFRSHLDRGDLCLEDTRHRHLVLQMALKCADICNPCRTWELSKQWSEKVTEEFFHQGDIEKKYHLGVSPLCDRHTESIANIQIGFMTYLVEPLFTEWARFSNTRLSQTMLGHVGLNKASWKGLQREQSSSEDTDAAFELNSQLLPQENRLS

Take `Cc1nc2c(N3CCOCC3)ccnn2c1-c1cnn(CC(C)C)c1` [compound 35, 2-methyl-3-[1-(2-methylpropyl)-1H-pyrazol-4-yl]-8-(4-morpholinyl)-imidazo[1,2-b]pyridazine]: the IC50 in assay [1] is more than 10 µM; in [4], 7.41 µM; in assay [5] it was more than 10 µM; in [6], more than 10 µM; in assay [7], more than 10 µM; in assay [8], more than 10 µM. Also, the IC50 in assay [9] is more than 10000 nM; in assay [10] (setting [11]), 38 nM; in assay [10] (setting [12]), 38 nM. In addition, the receptor occupancy at 10 mg/kg in assay [2] came out at 67%. In addition, the ED50 (usually the dose that gives a 50% effect, or the effect in half of the subjects) in [3] was found to be 5 mg/kg.
As to `COC(C)(C)Cn1cc(-c2c(C)nc3c(N4CCOCC4)ccnn23)cn1` [compound 37, 3-[1-(2-methoxy-2-methylpropyl)-1H-pyrazol-4-yl]-2-methyl-8-(4-morpholinyl)-imidazo[1,2-b]pyridazine], the IC50 was 30.9 µM in assay [1]; 11 µM in assay [4]; more than 100 µM in [5]; 45.7 µM in assay [6]; 39.8 µM in assay [7]; 53.7 µM in assay [8]. Further, the IC50 in assay [9] was 6030 nM; in assay [10] (setting [11]), 50.1 nM; in assay [10] (setting [12]) it was 50.1 nM. For the same compound, the figures for the 50% effective dose (ED50) in assay [2] and in assay [3] were 2.2 mg/kg and 1.5 mg/kg, respectively. In assay [2], the receptor occupancy at 10 mg/kg was found to be 67%.
For the compound `Cc1nc2c(-c3ccncc3)ccnn2c1-c1cnn(CC(C)C)c1` [compound 124, 2-methyl-3-[1-(2-methylpropyl)-1H-pyrazol-4-yl]-8-(4-pyridinyl)-imidazo[1,2-b]pyridazine], the IC50 was 7.41 µM in assay [1]; 6.92 µM in assay [4]; more than 10 µM in assay [5]; 5.37 µM in assay [6]; 5.37 µM in [7]; 8.71 µM in assay [8]. Further, the IC50 in assay [9] was 1950 nM; in assay [10] (setting [11]), 22.4 nM; in assay [10] (setting [12]), 22.4 nM. Also, the 50% effective dose (ED50) in assay [2] was 3 mg/kg; in assay [3], 1.2 mg/kg.
Regarding `COCCn1cc(-c2c(C)nc3c(N4CCOCC4)cc(C4CC4)nn23)cn1` [compound 125, 6-cyclopropyl-3-[1-(2-methoxyethyl)-1H-pyrazol-4-yl]-2-methyl-8-(4-morpholinyl)-imidazo[1,2-b]pyridazine], the IC50 in [1] was 2.09 µM; in [4], more than 10 µM; in assay [5] it was more than 10 µM; in assay [6], more than 10 µM; in assay [7] it was 4.47 µM; in [8], 8.51 µM. Besides, the values for the IC50 in [9], in assay [10] (setting [11]) and in [10] (setting [12]) were 1260 nM, 83.2 nM and 83.2 nM, respectively. Besides, the “% occupancy at the highest dose tested” value in assay [2] (dose response sc, data between brackets) was 42%. Also, the values for the 50% effective dose (ED50) in [2] and in assay [3] were more than 10 mg/kg and not below 2.5 mg/kg, respectively.
Take `CCc1nc2c(N3CCOCC3)ccnn2c1-c1cnn(CCOC)c1` [compound 127, 2-ethyl-3-[1-(2-methoxyethyl)-1H-pyrazol-4-yl]-8-(4-morpholinyl)-imidazo[1,2-b]pyridazine]: the IC50 in [1], in [4], in assay [5], in assay [6], in [7] and in assay [8] was more than 10 µM each time. The IC50 was 4680 nM in assay [9], 112 nM in assay [10] (setting [11]) and 112 nM in assay [10] (setting [12]). Further, in assay [2], the receptor occupancy at 10 mg/kg came out at 4%. For the same compound, the 50% effective dose (ED50) in [3] came to 2 mg/kg.
`CO[C@@H](C)Cn1cc(-c2c(C)nc3c(N4CCOCC4)ccnn23)cn1` [compound 131, 3-[1-[(2S)-2-methoxypropyl]-1H-pyrazol-4-yl]-2-methyl-8-(4-morpholinyl)-imidazo[1,2-b]pyridazine]: the IC50 in assay [1], in assay [4], in assay [5], in assay [6], in assay [7] and in assay [8] was more than 10 µM in each case. The IC50 in [9] was 8510 nM; in assay [10] (setting [11]) it was 34.7 nM; in assay [10] (setting [12]), 34.7 nM. The receptor occupancy at 10 mg/kg in assay [2] is 59%. For the same compound, in [3], the ED50 came to 3.1 mg/kg.
`COCCn1cc(-c2c(C3CC3)nc3c(-c4ccncc4)ccnn23)cn1` [compound 142, 2-cyclopropyl-3-[1-(2-methoxyethyl)-1H-pyrazol-4-yl]-8-(4-pyridinyl)-imidazo[1,2-b]pyridazine]: the IC50 in assay [1] was 2.82 µM; in assay [4] it was 5.13 µM; in assay [5], more than 10 µM; in [6], 5.01 µM; in assay [7] it was 1.82 µM; in assay [8], 5.5 µM. The IC50 in assay [9] was 1150 nM; in assay [10] (setting [11]), 14.5 nM; in assay [10] (setting [12]), 14.5 nM. The receptor occupancy at 10 mg/kg in assay [2] stood at 78%. The compound further came in with an ED50 in [3] of 5 mg/kg.
In the case of `COCCn1cc(-c2c(C)nc3c(-c4ccncc4)cc(Cl)nn23)cn1` [compound 147, 6-chloro-3-[1-(2-methoxyethyl)-1H-pyrazol-4-yl]-2-methyl-8-(4-pyridinyl)-imidazo[1,2-b]pyridazine], the IC50 in assay [1] is 3.8 µM; in assay [4], more than 10 µM; in assay [5], more than 10 µM; in assay [6], 3.55 µM; in assay [7], 3.8 µM; in [8] it was more than 10 µM. Moreover, the IC50 in assay [9] is 1170 nM; in assay [10] (setting [11]), 67.6 nM; in [10] (setting [12]), 67.6 nM. In addition, in assay [2], the receptor occupancy at 10 mg/kg came to 22%. Besides, the ED50 in assay [3] was found to be 5 mg/kg.
For `CC(C)Cn1cc(-c2c(C3CC3)nc3c(-c4ccncc4)ccnn23)cn1` [compound 148, 2-cyclopropyl-3-[1-(2-methylpropyl)-1H-pyrazol-4-yl]-8-(4-pyridinyl)-imidazo[1,2-b]pyridazine], the IC50 in assay [1] is 2.57 µM; in assay [4] it was 3.16 µM; in assay [5] it was more than 10 µM; in assay [6] it was 2.88 µM; in assay [7] it was 1.91 µM; in assay [8], 4.37 µM. Besides, the IC50 in assay [9] was 1230 nM; in assay [10] (setting [11]), 25.1 nM; in assay [10] (setting [12]) it was 25.1 nM. In addition, in [2], the receptor occupancy at 10 mg/kg stood at 66%. The 50% effect level in [3] (ED50) was put at a dose of 5 mg/kg.
